Measurements published in patent US11576930B2, “Methods and compositions for treatment of multi-drug resistant tumors” (priority 2017, dated 2023).

Columns and labels:
[1] = system: HCC97L cells; assay: Cell morphology and MTT cytotoxicity of agent alone; type: cell-based, human; set-up: dose or concentration left out as unconfirmed; conditions: AZI
Procedure: (§1) Then, HCC97L (3×10^3 well^−1), Hep3B (4×10^3 well^−1), PLC (4×10^3 well^−1), CNE1 (1.75×10^3 well^−1), CNE2 (3.5×10^3 well^−1), HONE1 (2×10^3 well^−1) and SUNE1 (2×10^3 well^−1) were seeded in 96-well plates ([…]) and allowed to attach for 24 h. After that, human liver cancer cell lines were treated with 3 chemotherapeutic drugs separately at different concentrations (as indicated in FIG. 2) in the presence of the anti-mycoplasma antibiotics for 48 h. […] In the P37-ANXA2 interruption experiment, A2PP was dissolved in DMSO and HCC97L cells were pretreated with A2PP (as indicated in FIG. 3) 24 h before GEM or MX treatment. […] (5 mg/ml final concentration; MP Biomedicals, LLC, CA, USA) was added to each well. After 4 h incubation at 37° C., the medium was removed and 100 μL/well DMSO (GBCBIO Technologies, Guangzhou, China) was added. The plates were mixed by a thermomixer for 5 min at RT. Absorbance measures were made in a microplate reader (iMark, Bio-Rad Laboratories, CA, USA) at 570/655 nm.

[2] = system: Hep3B; assay: as above; type: cell-based, human; set-up: dose or concentration left out as unconfirmed; conditions: AZI
Procedure: Then, HCC97L (3×10^3 well^−1), Hep3B (4×10^3 well^−1), PLC (4×10^3 well^−1), CNE1 (1.75×10^3 well^−1), CNE2 (3.5×10^3 well^−1), HONE1 (2×10^3 well^−1) and SUNE1 (2×10^3 well^−1) were seeded in 96-well plates (1004/well) and allowed to attach for 24 h. After that, human liver cancer cell lines were treated with 3 chemotherapeutic drugs separately at different concentrations (as indicated in FIG. 2) in the presence of the anti-mycoplasma antibiotics for 48 h. […] 104 of MTT (5 mg/ml final concentration; MP Biomedicals, LLC, CA, USA) was added to each well. After 4 h incubation at 37° C., the medium was removed and 100 μL/well DMSO (GBCBIO Technologies, Guangzhou, China) was added. The plates were mixed by a thermomixer for 5 min at RT. Absorbance measures were made in a microplate reader (iMark, Bio-Rad Laboratories, CA, USA) at 570/655 nm.

[3] = system: HCC97L cells; assay: MTT assay, sensitivity to chemotherapeutic drugs with anti-mycoplasma agent or A2PP; type: cell-based, human; conditions: non-cytotoxic concentration of MXF or AZI; chemotherapeutic 48 h
Procedure: as §1

[4] = system: mycoplasma; assay: Mycoplasma detection using quantitative real-time PCR in cancer cell lines; type: cell-based; set-up: dose or concentration left out as unconfirmed; conditions: AZI
Procedure: Total DNA was extracted from 5×10^5 cells from each group by digestion at 70° C. for 10 min in 0.5% Tween-20, 50 mM Tris (pH 8.5), 1 mM EDTA, and 200 mg/L proteinase K, followed by phenol/chloroform/isoamyl alcohol extraction and sodium acetate precipitation. DNA precipitates were washed with 70% ethanol, dried, and dissolved in 20 μL of sterile water. The extracted DNA ([…], 1.2 μg) from the cells was added to […] of the reaction solution, containing PCR buffer (SuperRealPreMix, SYBR Green; Tiangen Biotech, Beijing, China) and primers pairs for mycoplasma detection and reference control (β-actin) with a final concentration of 0.12 μM for each primer, to a total volume of 10 μL. Quantitative real-time PCR (qPCR) was performed as the following profile: 95° C. for 1 min (preincubation), followed by 40 cycles at 95° C. for 10 s (denaturation), 60° C. for 30 s (annealing and elongation). The primers (Table 1) for mycoplasma detection were gifts from Prof. Zhongning Lin (School of Public Health, Xiamen University) including two forward primers for universal mycoplasmal detection, one forward primer to detect Myco M. pirum., one for Myco A. laidlawii. detection and a mix of degenerate primers to work as the reverse primers.

[5] = system: Hep3B cells; assay: MTT assay, sensitivity to chemotherapeutic drugs with anti-mycoplasma antibiotics; type: cell-based, human; conditions: non-cytotoxic concentration of MXF or AZI; chemotherapeutic 48 h
Procedure: as §1

[6] = system: PLC/PRF/5 cell line; assay: as above; type: cell-based, human; conditions: non-cytotoxic concentration of MXF or AZI; chemotherapeutic 48 h
Procedure: as §1

[7] = system: HONE1 cells; type: cell-based, human
Procedure: as §1

[8] = system: CNE2; type: cell-based, human
Procedure: as §1

[9] = system: SUNE1 cells; type: cell-based, human
Procedure: as §1

Compound	toxicity to cells (cell morphology and MTT assay) [1]	toxicity to cells (cell morphology and MTT assay) [2]	sensitivity of HCC97L cells to CDDP [3]	sensitivity of HCC97L cells to GEM [3]	sensitivity of HCC97L cells to MX [3]	anti-mycoplasma effect (Real Time PCR) ([4]; HCC97L cells)	anti-mycoplasma effect (Real Time PCR) ([4]; Hep3B cells)	anti-mycoplasma effect (Real Time PCR) ([4]; PLC/PRF/5 cell line)	sensitivity of Hep3B cells to GEM [5]	sensitivity of Hep3B cells to MX [5]	efficacy of the anti-tumor drugs (CDDP, GEM, MX) in PLC/PRF/5 cell line [6]	sensitivity of HONE1 cells to 5-FU [7]	sensitivity of CNE2 cells to 5-FU [8]	sensitivity of SUNE1 cells to 5-FU [9]
CC[C@H]1OC(=O)[C@H](C)[C@@H](O[C@H]2C[C@@](C)(OC)[C@@H](O)[C@H](C)O2)[C@H](C)[C@@H](O[C@@H]2O[C@H](C)C[C@H](N(C)C)[C@H]2O)[C@](C)(O)C[C@@H](C)CN(C)[C@H](C)[C@@H](O)[C@]1(C)O [AZI, azithromycin]	non-toxic	non-toxic	enhanced	enhanced	enhanced	removed mycoplasma significantly	removed mycoplasma significantly	mycoplasma remained intact	enhanced	enhanced	neither MXF nor AZI improved the efficacy			
COc1c(N2C[C@@H]3CCCN[C@@H]3C2)c(F)cc2c(=O)c(C(=O)O)cn(C3CC3)c12 [MXF, Moxifloxacin]												enhanced	enhanced	improved
